Experimental data from article PMC7961380, “A Systematic Study of the In Vitro Pharmacokinetics and Estimated Human In Vivo Clearance of Indole and Indazole-3-Carboxamide Synthetic Cannabinoid Receptor Agonists Detected on the Illicit Drug Market” (Molecules, 2021).
Like-named read-outs stand apart in the source and are kept apart here.

How the values were obtained:
[1] = Plasma protein binding by equilibrium dialysis; format: in vitro ADME, human; details: for fraction unbound at 5 h, 10 µg mL^−1: human, pooled human plasma, pH 7.4, equilibrium dialysis 5 h, 37 °C
[2] = Metabolic stability, pooled human liver microsome incubations; details: for Predicted In Vivo Hepatic Clearance, CLH: from pHLM CLint, well-stirred model with plasma fu, Q 21 mL min^−1 kg^−1; for CLint scaled at 0.5 µM / half-life at 0.5 µM: human, microsomes; for CLint scaled at 0.5 µM: pH 7.4, Intrinsic clearance; for half-life at 0.5 µM: pH 7.4, T1/2 (min), pHLM 0.5 mg mL^−1, 0.5 µM, NADPH, 37 °C; for half-life at 0.5 µM / Microsomal Intrinsic Clearance, CLint micr: n ≥ 3 ± SD
[3] = Short-term plasma stability with and without esterase inhibitors; details: human, pH 7.4, Parent Compound Remaining (%), 3 h, 37 °C
Description: The pooled plasma used for both plasma stability and plasma binding studies originated from 50 donors, collected as whole blood from donors in the United States at an FDA-approved collection center, processed into plasma by centrifugation and immediately frozen (Innovative Research; Novi, MI, USA) and purchased from Patricell (Nottingham, UK). […] Stock solutions were prepared in DMSO. […] For incubations without inhibitor an equivalent volume of DMSO was included. Plasma mixture was pre-incubated at 37 °C for 5 min. Test compounds (5 µM) and procaine (positive control, 50 µM) were added to pre-warmed plasma mixture containing inhibitors. Incubation volume was 1 mL. Samples were mixed and 80 µL was immediately sampled and quenched into 200 µL ACN spiked with donepezil (internal standard (IS), 50 ng mL^−1). […] Peak area ratio of analyte to IS was used to determine half-lives of test compounds in plasma, both with and without the presence of esterase inhibitors.
The human plasma used was pooled from 50 donors, and was collected as whole blood from donors in
the United States at an FDA-approved collection center, processed into plasma by centrifugation and
The stability of the tested SCRAs, select metabolites and procaine control in pooled human plasma over
inhibitors bis(4-nitrophenyl) phosphate (BNPP) and phenyl methyl sulphonyl fluoride (PMSF) is

[4] = Metabolic stability, pooled human cryopreserved hepatocyte incubations; details: human, hepatocytes; for CLint scaled at 0.5 µM: Intrinsic clearance, pHHeps, alternative hepatocyte cell density 99x10^6 hepatocytes per gram liver; for half-life at 0.5 µM: T1/2 (min), pHHeps 0.25 million cells mL^−1, 0.5 µM, 37 °C, n ≥ 3 ± SD
[5] = test system: pooled human cryopreserved hepatocytes (pHHeps); experiment: as above; details: for Predicted In Vivo Hepatic Clearance, CLH: from pHHeps CLint, well-stirred model with plasma fu, Q 21 mL min^−1 kg^−1
[6] = 10 µg mL^−1, read-out: PPB (%) (converted)
[7] = plasma, read-out: Fraction Unbound (fu)
[8] = pHLM, alternative microsomal scaling factor 32 mg microsomal protein per gram liver
[9] = pHLM, alternative microsomal scaling factor 45 mg microsomal protein per gram liver
[10] = pHLM, scaling factor 32 mg microsomal protein per gram liver
[11] = pHLM, scaling factor 45 mg microsomal protein per gram liver
[12] = Esterase Inhibitors, pH 7.4, BNPP and PMSF 500 µM each
[13] = plasma, No Esterase Inhibitors, pH 7.4, pooled human plasma
[14] = pHHeps, 99x10^6 hepatocytes per gram liver

| SMILES | fraction unbound at 5 h, 10 µg mL^−1 [1, 6] | fraction unbound at 5 h, 10 µg mL^−1 [1, 7] | Predicted In Vivo Hepatic Clearance, CLH [2] | Hepatic extraction ratio, EH ([2]; from pHLM incubations) | CLint scaled at 0.5 µM [2, 8] | CLint scaled at 0.5 µM [2, 9] | half-life at 0.5 µM [2] | % parent compound remaining, Average ([2]; pHLM, 3 min) | % parent compound remaining, Average ([2]; pHLM, 6 min) | % parent compound remaining, Average ([2]; pHLM, 9 min) | % parent compound remaining, Average ([2]; pHLM, 15 min) | % parent compound remaining, Average ([2]; pHLM, 30 min) | Microsomal Intrinsic Clearance, CLint micr ([2]; pHLM) | Hepatic extraction ratio, EH [2, 10] | Predicted in vivo hepatic clearance, CLH [2, 10] | Predicted in vivo hepatic clearance, CLH [2, 11] | remaining at 3 h, 5 µM [3, 12] | remaining at 3 h, 5 µM [3, 13] | CLint scaled at 0.5 µM [4] | half-life at 0.5 µM [4] | other results |
| --- | --- | --- | --- | --- | --- | --- | --- | --- | --- | --- | --- | --- | --- | --- | --- | --- | --- | --- | --- | --- | --- |
| C=CCCCn1cc(C(=O)N[C@@H](C(=O)OC)C(C)C)c2ccccc21 [(R)-AMB-4en-PICA (7), methyl 3-methyl-2-[(1-pent-4-enylindole-3-carbonyl)amino] butanoate] | 0.059 | 0.059 ± 0.001 | 11.8 ± 0.97 mL/min/kg | 0.56 ± 0.046 | 286 mL/min/kg | 402 mL/min/kg | 4.1 ± 0.75 min | 56.4% | 36.2% | 22.6% | 9.6% | 1.6% | 0.348 ± 0.068 mL min^−1 mg Microsomal Protein^−1 | 0.44 ± 0.047 | 9.28 mL/min/kg | 11.05 mL/min/kg | 95.5 ± 2.9% | 91.7 ± 1.9% | 1470 mL/min/kg | 5.5 ± 2.1 min | recovery (total peak area in dialysed samples vs 4 °C samples) ([1]; PPB thermal stability control, 5 h): 95 ± 2.0%; Predicted In Vivo Hepatic Clearance, CLH [5]: 16.79 ± 1.33 mL/min/kg; Hepatic extraction ratio, EH ([5]; from pHHeps incubations): 0.80 ± 0.063; Hepatic extraction ratio, EH [5, 14]: 0.79 ± 0.066; Predicted in vivo hepatic clearance, CLH [5, 14]: 16.53 ± 1.39 mL/min/kg; % parent compound remaining, Average ([5]; pHHeps, 3 min): 57.7%; % parent compound remaining, Average ([5]; pHHeps, 6 min): 46.1%; % parent compound remaining, Average ([5]; pHHeps, 9 min): 25.6%; % parent compound remaining, Average ([5]; pHHeps, 15 min): 13.7%; % parent compound remaining, Average ([5]; pHHeps, 30 min): 4.6%; % parent compound remaining, Average ([5]; pHHeps, 45 min): 1.6%; % parent compound remaining, Average ([5]; pHHeps, 60 min): 0.6% |
| C=CCCCn1nc(C(=O)N[C@@H](C(=O)OC)C(C)(C)C)c2ccccc21 [(R)-MDMB-4en-PINACA (5), methyl 3,3-dimethyl-2-[1-(pent-4-en-1-yl)-1H-indazole-3-carboxamido] butanoate] | 0.019 | 0.019 ± 0.0071 | 4.94 ± 0.39 mL/min/kg | 0.24 ± 0.019 | 208 mL/min/kg | 292 mL/min/kg | 5.5 ± 0.59 min | 68.4% | 48.2% | 32.3% | 14.6% | 2.5% | 0.253 ± 0.026 mL min^−1 mg Microsomal Protein^−1 | 0.16 ± 0.014 | 3.32 mL/min/kg | 4.38 ± 0.36 mL/min/kg | 89.4 ± 3.4% | 87.2 ± 6.9% | 335 ± 61.6 mL/min/kg | 22 ± 3.6 min | Hepatic extraction ratio, EH [2, 11]: 0.21 ± 0.017; Predicted In Vivo Hepatic Clearance, CLH [5]: 5.16 ± 0.70 mL/min/kg; Hepatic extraction ratio, EH ([5]; from pHHeps incubations): 0.25 ± 0.033; Hepatic extraction ratio, EH [5, 14]: 0.23 ± 0.032; Predicted in vivo hepatic clearance, CLH [5, 14]: 4.86 ± 0.67 mL/min/kg; % parent compound remaining, Average ([5]; pHHeps, 3 min): 80.8%; % parent compound remaining, Average ([5]; pHHeps, 6 min): 77.7%; % parent compound remaining, Average ([5]; pHHeps, 9 min): 70.3%; % parent compound remaining, Average ([5]; pHHeps, 15 min): 58.1%; % parent compound remaining, Average ([5]; pHHeps, 30 min): 38.0%; % parent compound remaining, Average ([5]; pHHeps, 45 min): 26.6%; % parent compound remaining, Average ([5]; pHHeps, 60 min): 20.8% |
